Experimental data reported in US6916782B1, “Gene coding for heliomicine and use thereof” (priority 1998, dated 2005).
Bridge positions count the residues as written; N and C are the ends. Ends that are not written are not given here.

Experiments:
[1] = test system: female mice; assay: Study of acute toxicity, intravenous injection
Protocol: Groups of 4 female mice were treated by intravenous injection of solutions of heliomicine (SEQ ID NO:2) in saline solution at doses of 1 and 10 mg/kg.

[2] = test system: Nectria haematococca; settings: range [a]-[b], 48 h, 30° C.
Protocol: (§5) The antifungal activity was detected by a test for inhibition of growth in a liquid medium. The spores of the fungi to be tested were suspended in a culture medium of the “potato-glucose” type. Preferably, 12 g of Potato Dextrose Broth medium (Difco) were used per 1 l of demineralized water. Two antibiotics were added to the culture medium: tetracycline (final concentration of 10 μg/ml) and cefotaxime (100 μg/ml). 10 μl of each fraction to be analysed are deposited in microtitre plates in the presence of 90 μl of culture medium containing the spores (at a final concentration of 104 spores/ml). The incubation was carried out in a humid chamber at 30° C. for 48 hours. Fungal growth was observed under a light microscope after 24 h and quantified after 48 hours by measuring the absorbance at 600 nm with the aid of a spectrophotometric microtitre plate reader.
(§6) The different mutated heliomicines were analyzed for their antifungal activity under the conditions described for the reference heliomicine against the following strains: Neurospora crassa, Fusarium culmorum and Nectria haematococca.

[3] = test system: Candida albicans; assay: Test for detection of activity against yeasts (MIC); assay type: cell-based; settings: range [a]-[b]
Excerpt: (§1) This methodology was used to test for the antifungal molecules during the various purification steps, for the determination of the activity spectrum of the peptide and for the determination of the minimum inhibitory concentration (MIC) at which the peptide was active. The MIC was expressed as the concentration range [a]-[b] where [a] was the minimum concentration where the start of growth is observed and [b] the concentration for which no growth was observed.
(§2) The various yeast strains were incubated in a “Sabouraud” type culture medium and incubated at 30° C. for 24 h with gentle stirring. The test sample (10 μl) was deposited in microtitre plate wells to which there were added 90 μl of a dilute yeast culture whose density was adjusted to OD 600=0.001. Growth was evaluated by measuring the absorbance at 600 nm with the aid of a spectrophotometric microtitre plate reader.
(§3) - yeasts tested: Candida albicans, C. glabrata, C. tropicalis, C. krusei, C. inconspicua, Cryptococcus neoformans, Cryp. albidus, Saccharomyces cerevisiae (gift from Dr. H. Koenig, Hôpital civil, Strasbourg).

[4] = test system: Cryptococcus neoformans; assay: as above; assay type: cell-based; settings: range [a]-[b]
Excerpt: as §1, §2, §3

[5] = test system: Candida krusei; assay: as above; assay type: cell-based; settings: range [a]-[b]
Excerpt: as §1, §2, §3

[6] = test system: Candida tropicalis; assay: as above; assay type: cell-based; settings: range [a]-[b]
Excerpt: as §1, §2, §3

[7] = test system: Cryptococcus albidus; assay: as above; assay type: cell-based; settings: range [a]-[b]
Excerpt: as §1, §2, §3

[8] = test system: Candida inconspicua; assay: as above; assay type: cell-based; settings: range [a]-[b]
Excerpt: as §1, §2, §3

[9] = test system: Neurospora crassa; settings: range [a]-[b], start of growth to no growth, 48 h, 30° C.
Protocol: as §5, §6

[10] = test system: Trichoderma viride; assay: Inhibition of growth in liquid medium, filamentous fungi (MIC); assay type: cell-based; settings: range [a]-[b], 48 h, 30° C.
Excerpt: as §1
(§4) The antifungal activity was detected by a test for inhibition of growth in a liquid medium. The spores of the fungi to be tested were suspended in a culture medium of the “potato-glucose” type. Preferably, 12 g of Potato Dextrose Broth medium (Difco) were used per 1 l of demineralized water. Two antibiotics were added to the culture medium: tetracycline (final concentration of 10 μg/ml) and cefotaxime (100 μg/ml). 10 μl of each fraction to be analysed are deposited in microtitre plates in the presence of 90 μl of culture medium containing the spores (at a final concentration of […]). The incubation was carried out in a humid chamber at 30° C. for 48 hours. Fungal growth was observed under a light microscope after 24 h and quantified after 48 hours by measuring the absorbance at 600 nm with the aid of a spectrophotometric microtitre plate reader. […]

[11] = test system: Aspergillus fumigatus; assay: as above; assay type: cell-based; settings: range [a]-[b], 48 h, 30° C.
Excerpt: as §1, §4

[12] = test system: Fusarium culmorum; settings: range [a]-[b], 48 h, 30° C.
Protocol: as §5, §6

Molecule	Toxic effects ([1]; intravenous injection, at 5 days at 1 mg)	Mortality ([1]; intravenous injection, at 5 days at 10 mg)	MIC of heliomicine [2]	MIC of heliomicine [3]	MIC of heliomicine [4]	MIC of heliomicine [5]	MIC of heliomicine [6]	MIC of heliomicine [7]	MIC of heliomicine [8]	Acute toxicity ([1]; intravenous injection in saline solution, doses of 1 and 10 mg/kg)	MIC of heliomicine [9]	MIC of heliomicine [10]	MIC of heliomicine [11]	MIC of heliomicine [12]
CC[C@H](C)[C@H](NC(=O)CN)C(=O)NCC(=O)N[C@@H](C)C(=O)N[C@H](C(=O)N[C@@H](CC(C)C)C(=O)N[C@@H](CCCCN)C(=O)N[C@H](C(=O)N[C@@H](CC(C)C)C(=O)N[C@H](C(=O)N[C@H](C(=O)NCC(=O)N[C@@H](CC(C)C)C(=O)N1CCC[C@H]1C(=O)N[C@@H](C)C(=O)N[C@@H](CC(C)C)C(=O)N[C@H](C(=O)N[C@@H](CO)C(=O)N[C@@H](Cc1c[nH]c2ccccc12)C(=O)N[C@H](C(=O)N[C@@H](CCCCN)C(=O)N[C@@H](CCCNC(=N)N)C(=O)N[C@@H](CCCCN)C(=O)N[C@@H](CCCNC(=N)N)C(=O)N[C@@H](CCC(N)=O)C(=O)N[C@@H](CCC(N)=O)C(N)=O)[C@@H](C)CC)[C@@H](C)CC)[C@@H](C)O)[C@@H](C)O)C(C)C)C(C)C [mellitin]	significant effects	100%												
DKLIGSCVWGAVNYTSDCNGECKRRGYKGGHCGSFANVNCWCET (disulfide 7-32, 18-40, 22-42) [heliomicine]			0.4 to 0.8 µM	2.5 to 5 µM	2.5 to 5 µM	10 to 20 µM	2.5 to 5 µM	5 to 10 µM	5 to 10 µM	No toxicity was demonstrated	0.1 to 0.2 µM	1.5 to 3 µM	6 to 12.5 µM	0.2 to 0.4 µM
